Data on five molecules can be found in ChEMBL document CHEMBL1201862, “PubChem BioAssay data set” (2004).

Each structure is given as a SMILES string. Calls of active or inactive are those of the source. Cut-off read from the data, not from the text of the source, for most assays here: active = EC50 of 10 µM or less and inactive = more.

Assay type in all cases: functional
In one assay the test system is HEK293. The assay can be described thus: Fluorescence-based counterscreen for potentiators or agonists of NPY-Y2: cell-based high-throughput dose response assay to identify inhibitors of cyclic nucleotide gated ion channel (CNGC) activity. In this assay, the parental HEK293 cell line transfected with a cyclic-nucleotide gated ion channel (CNGC)-based cAMP sensor is used to measure inhibition of isoproterenol-induced CNGC activity by test compound. To be noted: Homo sapiens.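 Note: stimulus is 1 µM isoproterenol at EC100 plus PDE inhibitor Ro 20-1724 at 25 µM.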

Assay [1] addresses Neuropeptide Y receptor type 2 (Homo sapiens, UniProt P49146). The assay can be described thus: Fluorescence-based cell-based high-throughput dose response assay for agonists of NPY-Y2. [Related pubchem assays: 1703 (Screening assay (CNGC inhibitors).), 1359 (Screening assay (NPY-Y2 potentiators or agonists).), 1304 (Screening assay (NPY-Y1 potentiators or agonists).), 1710 (Screening assay (NPY-Y2 agonists).), 1791 (Summary AID.)].

Assay [2] addresses T1, Heat shock factor protein 1 (Mus musculus, UniProt P38532).
T1 sequence (P38532 whole entry): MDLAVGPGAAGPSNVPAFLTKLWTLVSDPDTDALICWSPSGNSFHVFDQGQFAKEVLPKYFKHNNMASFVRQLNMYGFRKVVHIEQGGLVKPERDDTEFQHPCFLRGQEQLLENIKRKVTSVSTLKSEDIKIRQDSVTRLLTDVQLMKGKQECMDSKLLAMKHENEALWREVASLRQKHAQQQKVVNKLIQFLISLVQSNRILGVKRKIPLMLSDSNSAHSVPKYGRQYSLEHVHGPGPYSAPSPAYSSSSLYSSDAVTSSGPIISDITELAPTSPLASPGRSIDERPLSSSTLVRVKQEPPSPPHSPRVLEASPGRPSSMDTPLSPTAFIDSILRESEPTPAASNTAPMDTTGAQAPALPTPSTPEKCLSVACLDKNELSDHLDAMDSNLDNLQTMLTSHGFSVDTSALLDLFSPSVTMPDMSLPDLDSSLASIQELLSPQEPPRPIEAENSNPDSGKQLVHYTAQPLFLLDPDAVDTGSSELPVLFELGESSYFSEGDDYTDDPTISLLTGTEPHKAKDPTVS
The assay can be described thus: enhancement of HSF1-driven luciferase signal – cell-based, NIH3T3, luminescence, dose retest, confirmation (AID 435004).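 Note: stress induced by proteasome inhibitor MG132 added 30 min after compound; luciferase reporter driven by HSF1 response element in NIH3T3 cells; actives raise luminescence as potentiators of the MG132 stress response.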

In assay [3] the target is Neuropeptide Y receptor type 1 (Homo sapiens, UniProt P25929). The assay can be described thus: Fluorescence-based counterscreen for agonists of NPY-Y2: cell-based high-throughput dose response assay for agonists of NPY-Y1. (In general: The purpose of a counterscreen is to sort out artefacts and off-target activity.)
Neuropeptide Y receptor type 1, sequence (P25929 whole entry): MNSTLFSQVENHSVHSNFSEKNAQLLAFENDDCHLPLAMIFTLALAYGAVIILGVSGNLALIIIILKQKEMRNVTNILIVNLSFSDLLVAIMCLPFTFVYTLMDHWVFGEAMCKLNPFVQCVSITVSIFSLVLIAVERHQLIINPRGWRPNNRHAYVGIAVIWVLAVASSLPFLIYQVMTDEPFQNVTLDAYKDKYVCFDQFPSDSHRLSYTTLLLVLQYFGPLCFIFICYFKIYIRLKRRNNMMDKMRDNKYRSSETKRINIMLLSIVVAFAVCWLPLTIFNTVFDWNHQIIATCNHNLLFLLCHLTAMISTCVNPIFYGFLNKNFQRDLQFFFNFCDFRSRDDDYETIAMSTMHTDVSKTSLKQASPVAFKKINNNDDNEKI
Assay [4] concerns the target Peroxisome proliferator-activated receptor gamma/Nuclear receptor coactivator 1 (Homo sapiens, UniProt P37231).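 Note: agonist potency as compounds enhance coactivator SRC-1 recruitment to PPARgamma.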
Assay [5] concerns the target Peroxisome proliferator-activated receptor gamma/Nuclear receptor coactivator 3 (Homo sapiens, UniProt P37231).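 Note: agonist potency for raising coactivator recruitment to the receptor.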
For assay [6], the target named is Peroxisome proliferator-activated receptor gamma/Nuclear receptor coactivator 2 (Homo sapiens, UniProt P37231).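 Note: agonist potency for raising coactivator recruitment to the receptor.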
Peroxisome proliferator-activated receptor gamma/Nuclear receptor coactivator 2, sequence (P37231 whole entry): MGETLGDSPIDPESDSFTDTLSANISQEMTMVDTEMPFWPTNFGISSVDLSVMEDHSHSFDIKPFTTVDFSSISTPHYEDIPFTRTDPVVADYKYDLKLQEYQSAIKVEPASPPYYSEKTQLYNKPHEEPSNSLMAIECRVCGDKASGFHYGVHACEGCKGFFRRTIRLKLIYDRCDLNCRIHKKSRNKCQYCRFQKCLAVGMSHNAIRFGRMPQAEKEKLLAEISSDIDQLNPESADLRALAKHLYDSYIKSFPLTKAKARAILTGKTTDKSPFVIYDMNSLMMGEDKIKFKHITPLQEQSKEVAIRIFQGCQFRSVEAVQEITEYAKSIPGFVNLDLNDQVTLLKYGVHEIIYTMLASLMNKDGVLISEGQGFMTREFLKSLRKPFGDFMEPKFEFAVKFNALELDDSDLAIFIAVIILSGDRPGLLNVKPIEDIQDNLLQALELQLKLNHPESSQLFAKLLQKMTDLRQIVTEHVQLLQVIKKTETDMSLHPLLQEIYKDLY
Peroxisome proliferator-activated receptor gamma/Nuclear receptor coactivator 2, sequence (Q15596 whole entry, further chain): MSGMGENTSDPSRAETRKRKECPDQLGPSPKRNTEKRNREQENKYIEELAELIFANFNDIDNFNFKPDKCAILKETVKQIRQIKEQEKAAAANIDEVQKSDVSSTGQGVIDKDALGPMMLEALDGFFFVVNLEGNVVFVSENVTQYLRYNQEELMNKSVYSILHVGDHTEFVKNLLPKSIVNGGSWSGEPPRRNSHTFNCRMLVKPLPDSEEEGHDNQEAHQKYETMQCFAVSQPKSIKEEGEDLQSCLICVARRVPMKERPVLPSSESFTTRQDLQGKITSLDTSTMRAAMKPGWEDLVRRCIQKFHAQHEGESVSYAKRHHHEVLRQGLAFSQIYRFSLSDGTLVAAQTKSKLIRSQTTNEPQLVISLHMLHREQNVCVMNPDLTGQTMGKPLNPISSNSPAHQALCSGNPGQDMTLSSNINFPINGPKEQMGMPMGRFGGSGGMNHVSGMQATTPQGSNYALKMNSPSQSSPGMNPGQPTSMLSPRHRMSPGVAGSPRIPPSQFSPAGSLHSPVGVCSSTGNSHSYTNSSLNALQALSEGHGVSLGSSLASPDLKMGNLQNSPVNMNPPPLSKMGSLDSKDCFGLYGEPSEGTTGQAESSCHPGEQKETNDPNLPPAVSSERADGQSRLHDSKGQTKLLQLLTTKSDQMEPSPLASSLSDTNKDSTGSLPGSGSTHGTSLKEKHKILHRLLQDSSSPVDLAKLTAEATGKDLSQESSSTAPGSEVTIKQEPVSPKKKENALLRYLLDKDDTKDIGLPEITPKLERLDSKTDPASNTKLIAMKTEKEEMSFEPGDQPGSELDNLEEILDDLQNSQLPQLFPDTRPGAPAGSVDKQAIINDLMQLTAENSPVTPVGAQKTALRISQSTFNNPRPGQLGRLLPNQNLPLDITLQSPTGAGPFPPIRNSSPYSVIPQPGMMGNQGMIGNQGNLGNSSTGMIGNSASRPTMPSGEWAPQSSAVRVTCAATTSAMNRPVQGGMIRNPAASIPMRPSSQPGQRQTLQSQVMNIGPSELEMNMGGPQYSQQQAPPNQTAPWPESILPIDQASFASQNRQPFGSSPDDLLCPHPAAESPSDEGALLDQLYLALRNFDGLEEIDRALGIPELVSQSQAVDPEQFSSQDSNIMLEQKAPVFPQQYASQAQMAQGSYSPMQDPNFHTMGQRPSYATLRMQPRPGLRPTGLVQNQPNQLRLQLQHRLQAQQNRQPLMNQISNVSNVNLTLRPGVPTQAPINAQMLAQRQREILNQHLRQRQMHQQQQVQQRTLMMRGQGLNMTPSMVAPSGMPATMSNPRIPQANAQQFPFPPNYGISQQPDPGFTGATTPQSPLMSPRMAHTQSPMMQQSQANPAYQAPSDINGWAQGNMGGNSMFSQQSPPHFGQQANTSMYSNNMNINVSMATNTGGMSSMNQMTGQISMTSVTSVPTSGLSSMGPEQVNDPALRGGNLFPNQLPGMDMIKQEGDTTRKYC
Assay [7] is described as follows: M. tuberculosis H37Rv growth inhibitors, H37Rv strain (AID 1626).
A short description of assay [8]: A Cell Based Secondary Assay To Explore Cytotoxicity of Compounds that Sensitize Mycobacterium Tuberculosis to Beta-Lactam Antibiotics.
A short description of assay [9]: A High Throughput Confirmatory Assay used to Identify Novel Compounds that Inhibit Mycobacterium Tuberculosis in the absence of Glycerol.
Assay [10] can be described thus: microbe, parasite or virus in culture. To be noted: Mycobacterium tuberculosis.

Neuropeptide Y receptor type 2, sequence (P49146 whole entry): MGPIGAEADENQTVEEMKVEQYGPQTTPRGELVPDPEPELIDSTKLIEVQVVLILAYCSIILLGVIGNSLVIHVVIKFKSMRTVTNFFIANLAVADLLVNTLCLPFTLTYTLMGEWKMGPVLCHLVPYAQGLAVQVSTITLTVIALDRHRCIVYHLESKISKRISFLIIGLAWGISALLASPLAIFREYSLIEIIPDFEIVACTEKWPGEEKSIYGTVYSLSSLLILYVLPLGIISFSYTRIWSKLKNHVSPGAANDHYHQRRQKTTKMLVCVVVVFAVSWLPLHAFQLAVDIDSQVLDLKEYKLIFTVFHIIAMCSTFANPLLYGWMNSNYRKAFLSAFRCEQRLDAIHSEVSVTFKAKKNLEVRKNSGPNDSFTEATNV
Peroxisome proliferator-activated receptor gamma/Nuclear receptor coactivator 3, sequence (P37231 whole entry): as the sequence (P37231 whole entry) above
Peroxisome proliferator-activated receptor gamma/Nuclear receptor coactivator 3, sequence (Q9Y6Q9 whole entry, further chain): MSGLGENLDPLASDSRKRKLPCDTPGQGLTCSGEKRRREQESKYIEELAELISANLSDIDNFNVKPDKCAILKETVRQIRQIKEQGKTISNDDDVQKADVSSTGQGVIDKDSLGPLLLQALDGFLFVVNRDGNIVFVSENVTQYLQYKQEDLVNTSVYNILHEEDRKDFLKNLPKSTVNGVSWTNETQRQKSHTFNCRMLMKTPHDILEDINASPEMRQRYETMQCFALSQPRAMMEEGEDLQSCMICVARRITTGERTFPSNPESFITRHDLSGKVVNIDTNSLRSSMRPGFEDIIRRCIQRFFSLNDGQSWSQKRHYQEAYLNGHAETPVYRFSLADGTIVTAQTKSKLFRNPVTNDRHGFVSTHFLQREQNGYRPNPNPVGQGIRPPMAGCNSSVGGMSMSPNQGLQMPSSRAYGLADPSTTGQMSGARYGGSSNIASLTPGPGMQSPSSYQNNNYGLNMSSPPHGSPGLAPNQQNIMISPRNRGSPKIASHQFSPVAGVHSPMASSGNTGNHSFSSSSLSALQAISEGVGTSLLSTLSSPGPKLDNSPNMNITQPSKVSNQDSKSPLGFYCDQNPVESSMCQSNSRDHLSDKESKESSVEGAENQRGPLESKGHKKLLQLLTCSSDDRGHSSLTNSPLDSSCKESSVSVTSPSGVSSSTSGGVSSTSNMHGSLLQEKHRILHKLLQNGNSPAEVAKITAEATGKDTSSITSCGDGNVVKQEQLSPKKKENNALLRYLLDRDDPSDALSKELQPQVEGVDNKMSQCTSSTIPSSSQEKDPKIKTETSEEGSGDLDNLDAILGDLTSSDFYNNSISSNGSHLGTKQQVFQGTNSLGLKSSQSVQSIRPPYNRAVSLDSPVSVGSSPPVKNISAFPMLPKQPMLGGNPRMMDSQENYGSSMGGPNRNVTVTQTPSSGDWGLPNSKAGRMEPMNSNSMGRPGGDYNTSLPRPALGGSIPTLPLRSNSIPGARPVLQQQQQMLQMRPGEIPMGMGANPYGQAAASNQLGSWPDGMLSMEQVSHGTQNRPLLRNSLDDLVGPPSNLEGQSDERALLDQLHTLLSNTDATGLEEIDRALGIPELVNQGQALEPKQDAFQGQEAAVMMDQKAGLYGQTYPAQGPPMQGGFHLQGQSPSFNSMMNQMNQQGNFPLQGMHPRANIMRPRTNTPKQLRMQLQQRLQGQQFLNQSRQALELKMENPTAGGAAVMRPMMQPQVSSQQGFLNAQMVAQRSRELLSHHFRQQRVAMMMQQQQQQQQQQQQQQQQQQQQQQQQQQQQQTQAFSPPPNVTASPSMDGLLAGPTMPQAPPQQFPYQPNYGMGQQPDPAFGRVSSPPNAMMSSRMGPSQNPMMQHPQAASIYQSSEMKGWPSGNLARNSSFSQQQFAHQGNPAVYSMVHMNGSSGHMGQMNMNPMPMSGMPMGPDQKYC

A word on the EC50: it is the concentration that produces a half-maximal response. As to `COCCCNC(=O)c1cnc2ccc(S(=O)(=O)N3CCc4ccccc43)cc2c1O`, the concentration for a half-maximal effect (EC50) was > 35.4 µM (not active) with HEK293, > 35.4 µM (not active) in [1], > 260 µM (inactive) in assay [2] and > 35.4 µM (not active) in assay [3].
As for `O=C(COc1ccccc1-c1ccccc1)NCc1ccco1`, the concentration for a half-maximal effect (EC50) in assay [4], in assay [5] and in assay [6] was > 79.4 µM (not active) throughout.
What is called IC50 is the point on the concentration scale where inhibition reaches its midpoint. Consider `O=C(CSC1=NCCS1)Nc1ccc2ccccc2c1`, for which the IC50 in assay [7] was > 100 µM (active).
In the case of `O=S(=O)(Nc1cccc(-c2ccc(N3CCCCCC3)nn2)c1)c1ccccc1Cl`, the CC50 in assay [8] was > 40 µM (active).
Consider `Cc1ccc(-c2noc(=O)n2CC(=O)c2ccc(Cl)cc2)cc1`, for which the half-maximal inhibitory concentration (IC50) in [9] is > 50 µM (active). Also, the CC50 in assay [10] is > 40 µM (active).
